The source made the active and inactive calls. The rule behind the calls is not given here. Where only a bound is given, the exact number is not on record here.

Drawing on ChEMBL document CHEMBL4308834, “Novel Allosteric Activators for Ferroptosis Regulator Glutathione Peroxidase 4” (J Med Chem, 2018), this text covers inhibition, EC150 and Activity for one compound.

The target in assay [1] is T1, Leukotriene A-4 hydrolase (Homo sapiens) (UniProt P09960).
T1 sequence (whole entry): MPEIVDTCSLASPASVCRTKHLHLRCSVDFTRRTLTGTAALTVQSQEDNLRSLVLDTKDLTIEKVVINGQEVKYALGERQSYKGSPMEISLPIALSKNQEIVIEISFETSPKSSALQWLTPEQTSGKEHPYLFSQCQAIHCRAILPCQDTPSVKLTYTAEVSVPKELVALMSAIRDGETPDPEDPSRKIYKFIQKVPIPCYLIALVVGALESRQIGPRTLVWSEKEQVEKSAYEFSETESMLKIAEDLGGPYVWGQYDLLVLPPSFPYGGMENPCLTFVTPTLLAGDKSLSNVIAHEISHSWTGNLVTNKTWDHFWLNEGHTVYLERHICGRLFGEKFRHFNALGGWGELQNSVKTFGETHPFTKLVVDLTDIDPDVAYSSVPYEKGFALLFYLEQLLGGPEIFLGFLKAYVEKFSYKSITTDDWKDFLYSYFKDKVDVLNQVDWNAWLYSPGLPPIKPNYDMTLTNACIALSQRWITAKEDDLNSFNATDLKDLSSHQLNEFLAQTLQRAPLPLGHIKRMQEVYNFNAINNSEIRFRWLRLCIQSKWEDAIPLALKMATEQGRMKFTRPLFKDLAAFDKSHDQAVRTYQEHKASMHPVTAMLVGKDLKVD
The experiment in a line: Inhibition of LTA4H (unknown origin) at 500 uM preincubated for 15 mins followed by LTA4 substrate addition and measured after 10 mins by ELISA relative to control. Background: ELISA stands for enzyme-linked immunosorbent assay.

The species entered for another assay is Homo sapiens. In words: Activation of recombinant human GPX4 D21A/D23A/U46C mutant expressed in Escherichia coli M15 assessed as increase in oxidized glutathione-mediated oxidation of NADPH to NADP+ using tert-butyl hydroperoxide as substrate preincubated for 5 mins followed by substrate addition measured for 6 mins by glutathione reductase enzyme coupled fluorescence assay relative to GPX4 U46C mutant control.

Assay [2] in a line: Zinc chelating activity in presence of ZnSO4 after 10 mins by crystal violet staining based assay.
A short description of assay [3]: Iron chelating activity assessed as compound-Fe2+ complex formation after 10 mins by Prussian blue assay.

In general, inhibition refers to the change of the read-out against control, counted positive when it falls. A lower inhibition goes with a response near the control. For the compound `NS(=O)(=O)c1ccc(NC(S)=NCc2ccc(Cl)cc2)cc1`, the inhibition in assay [1] was determined as 17%. For the same compound, in the assay filed under Homo sapiens, the EC150 is > 1000 µM. Also, the outcome in assay [2] and in assay [3] was inactive.
